Data as given in ChEMBL document CHEMBL5126521, “Analgesic Opioid Ligand Discovery Based on Nonmorphinan Scaffolds Derived from Natural Sources” (J Med Chem, 2022).
Bridge positions count the residues as written; N and C are the ends. Square brackets hold non-standard residues; d marks the D form. Peptide text beside a SMILES is read from it.

How the values were obtained:
Mu-type opioid receptor [1] = target: T1, Mu-type opioid receptor (Homo sapiens, UniProt P35372); experiment: Agonist activity at MOP (unknown origin) stably expressed in HEK293 cells assessed as forskolin stimulated cAMP accumulation incubated for 30 mins by radioactivity based scintillation counter analysis; assay type: functional, cell-based
T1 sequence (P35372 whole entry): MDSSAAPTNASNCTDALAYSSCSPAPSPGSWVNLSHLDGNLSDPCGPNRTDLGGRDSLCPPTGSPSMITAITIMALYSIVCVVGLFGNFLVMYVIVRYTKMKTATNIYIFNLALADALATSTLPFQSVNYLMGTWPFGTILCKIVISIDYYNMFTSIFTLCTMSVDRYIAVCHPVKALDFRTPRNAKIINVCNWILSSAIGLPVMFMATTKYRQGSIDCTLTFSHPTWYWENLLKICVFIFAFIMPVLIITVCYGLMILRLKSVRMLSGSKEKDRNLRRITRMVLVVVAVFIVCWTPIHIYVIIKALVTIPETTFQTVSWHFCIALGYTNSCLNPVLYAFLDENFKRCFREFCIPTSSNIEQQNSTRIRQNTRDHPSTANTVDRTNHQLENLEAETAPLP

[2] = target: T2, Delta-type opioid receptor (Homo sapiens, UniProt P41143); experiment: Displacement of [3H]DPDPE from DOP (unknown origin) stably expressed in HEK293 cells by liquid scintillation counter analysis; assay type: cell-based
T2 sequence (P41143 whole entry): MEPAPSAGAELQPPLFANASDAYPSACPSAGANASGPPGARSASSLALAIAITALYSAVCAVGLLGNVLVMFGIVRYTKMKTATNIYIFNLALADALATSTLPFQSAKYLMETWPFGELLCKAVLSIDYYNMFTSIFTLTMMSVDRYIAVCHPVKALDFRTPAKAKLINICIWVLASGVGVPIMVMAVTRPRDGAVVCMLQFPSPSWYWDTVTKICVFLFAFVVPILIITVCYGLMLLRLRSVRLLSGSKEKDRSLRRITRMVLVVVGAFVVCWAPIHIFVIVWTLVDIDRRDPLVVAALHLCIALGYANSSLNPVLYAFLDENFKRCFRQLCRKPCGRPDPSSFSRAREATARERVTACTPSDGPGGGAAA

Mu-type opioid receptor [3] = target: T1, Mu-type opioid receptor; experiment: Displacement of [3H]DAMGO from MOP (unknown origin) stably expressed in HEK293 cells by liquid scintillation counter analysis; assay type: cell-based
Mu-type opioid receptor [4] = target: T1, Mu-type opioid receptor; experiment: Agonist activity at MOP (unknown origin) stably expressed in HEK293 cells assessed as forskolin stimulated cAMP accumulation incubated for 30 mins by radioactivity based scintillation counter analysis relative to control; assay type: functional, cell-based; conditions: filed as agonist
Mu-type opioid receptor [5] = target: T1, Mu-type opioid receptor; experiment: Agonist activity at human recombinant MOP expressed in CHO cells by calcium mobilization assay; assay type: functional, cell-based
Mu-type opioid receptor [6] = target: Mu-type opioid receptor (Rattus norvegicus, UniProt P33535); experiment: Inhibition of Wistar rat brain membrane MOP; assay type: cell membranes
Chain of Mu-type opioid receptor (Rattus norvegicus, UniProt P33535) (P33535 whole entry): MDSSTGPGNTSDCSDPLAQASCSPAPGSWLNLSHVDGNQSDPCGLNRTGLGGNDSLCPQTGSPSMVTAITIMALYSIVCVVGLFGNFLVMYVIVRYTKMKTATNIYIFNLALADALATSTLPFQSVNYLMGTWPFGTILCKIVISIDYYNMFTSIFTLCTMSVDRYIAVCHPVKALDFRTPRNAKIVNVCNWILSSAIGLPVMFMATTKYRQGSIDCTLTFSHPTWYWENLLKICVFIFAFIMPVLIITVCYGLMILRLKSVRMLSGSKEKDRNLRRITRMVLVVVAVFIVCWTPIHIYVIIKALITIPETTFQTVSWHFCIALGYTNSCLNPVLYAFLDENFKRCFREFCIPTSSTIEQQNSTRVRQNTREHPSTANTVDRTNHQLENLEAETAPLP

Mus musculus = experiment: Antinociceptive activity in Swiss albino mouse assessed tail flick response in warm water administered icv; assay type: functional
[7] = Stability in rat brain homogenate assessed as compound remaining measured after 90 mins relative to control; assay type: ADME, tissue-based; conditions: read-out: Stability
[8] = target: Delta-type opioid receptor (Rattus norvegicus, UniProt P33533); experiment: Inhibition of Wistar rat brain membrane DOP; assay type: cell membranes
Chain of Delta-type opioid receptor (Rattus norvegicus, UniProt P33533) (P33533 whole entry): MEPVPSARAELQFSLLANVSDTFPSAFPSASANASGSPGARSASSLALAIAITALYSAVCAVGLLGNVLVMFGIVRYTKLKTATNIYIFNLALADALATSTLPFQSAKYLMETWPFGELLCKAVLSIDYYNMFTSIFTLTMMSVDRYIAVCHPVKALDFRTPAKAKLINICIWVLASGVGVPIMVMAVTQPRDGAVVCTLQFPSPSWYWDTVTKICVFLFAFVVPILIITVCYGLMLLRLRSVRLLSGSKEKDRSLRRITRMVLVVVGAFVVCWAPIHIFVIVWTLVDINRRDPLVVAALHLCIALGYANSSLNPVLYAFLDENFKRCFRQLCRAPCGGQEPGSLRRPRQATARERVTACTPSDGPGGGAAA

Mu-type opioid receptor [9] = target: T1, Mu-type opioid receptor; experiment: Binding affinity to MOP (unknown origin)
[10] = target: T2, Delta-type opioid receptor; experiment: Binding affinity to DOP (unknown origin)
Mu-type opioid receptor [11] = target: Mu-type opioid receptor (Mus musculus, UniProt P42866); experiment: Antagonist activity at mouse vas deferns MOP; assay type: functional
Chain of Mu-type opioid receptor (Mus musculus, UniProt P42866) (P42866 whole entry): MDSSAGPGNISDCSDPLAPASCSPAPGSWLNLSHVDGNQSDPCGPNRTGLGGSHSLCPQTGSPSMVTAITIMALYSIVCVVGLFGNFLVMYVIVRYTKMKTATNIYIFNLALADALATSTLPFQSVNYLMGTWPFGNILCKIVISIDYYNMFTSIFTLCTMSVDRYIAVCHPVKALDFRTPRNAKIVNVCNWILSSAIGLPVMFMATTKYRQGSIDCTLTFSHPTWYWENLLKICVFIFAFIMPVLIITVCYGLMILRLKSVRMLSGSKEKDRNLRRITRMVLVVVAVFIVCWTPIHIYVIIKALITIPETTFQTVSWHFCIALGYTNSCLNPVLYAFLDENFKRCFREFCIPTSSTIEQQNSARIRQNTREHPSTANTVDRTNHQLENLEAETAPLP

Mu-type opioid receptor [12] = target: Mu-type opioid receptor (Cavia porcellus, UniProt P97266); experiment: Antagonist activity at guinea pig ileum MOP; assay type: functional, tissue-based
Chain of Mu-type opioid receptor (Cavia porcellus, UniProt P97266) (P97266 whole entry): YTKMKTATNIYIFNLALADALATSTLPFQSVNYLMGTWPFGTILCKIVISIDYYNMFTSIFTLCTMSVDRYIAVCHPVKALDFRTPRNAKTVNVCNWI

Rattus norvegicus = experiment: Antinociceptive activity in rat administered icv by tail pressure test relative to control; assay type: functional; parameters: concentration or dose not given beside the values
[13] = Stability in mouse brain homogenate assessed as half life; assay type: ADME, tissue-based
[14] = Stability in mouse serum assessed as half life; assay type: ADME, cell-free

Q: For `C=C(C(N)=O)[C@@H](NC(=O)[C@H](Cc1ccccc1)NC(=O)[C@@H](C)N(C)C(=O)[C@@H](N)Cc1ccc(O)cc1)c1ccco1`, which EC50 (Mu-type opioid receptor [1]) is on record?
A: 4.11 nM

Q: What about the Ki [2] of the same compound?
A: 4.51 µM

Q: And the Ki (Mu-type opioid receptor [3])?
A: 0.45 nM

Q: And the Emax (Mu-type opioid receptor [4])?
A: 87.7%

Q: Which EC50 (Mu-type opioid receptor [5]) does the source give for `Cc1cc(O)cc(C)c1C[C@H](N)C(=O)N[C@@H]1CCCCNC(=O)C[C@@H](C(N)=O)NC(=O)[C@H](c2ccccc2)NC(=O)[C@H](c2ccccc2)NC1=O` here?
A: 1.73 nM

Q: And the IC50 (Mu-type opioid receptor [6])?
A: 0.26 nM

Q: And the ED50 (Mus musculus)?
A: 0.02 µg

Q: And the remaining at […] [7]?
A: 85%

Q: And the IC50 [8]?
A: 400 nM

Q: For `Cc1cc(O)cc(C)c1C[C@H](N)C(=O)N[C@@H]1CCCCNC(=O)C[C@@H](C(N)=O)NC(=O)[C@H](c2ccc(F)cc2)NC(=O)[C@H](c2ccccc2)NC1=O`, which remaining at […] [7] is on record?
A: 93%

Q: Which Ki (Mu-type opioid receptor [9]) does the source give for `N[C@@H](Cc1ccc(O)cc1)C(=O)N[C@@H]1CCCCNC(=O)[C@H](Cc2ccccc2)NC(=O)[C@H](Cc2c[nH]c3ccccc23)NC1=O` (H-Y[dK]WF; lactam 2-C) here?
A: 0.25 nM

Q: And the Ki [10]?
A: 38 nM

Q: Which remaining at […] [7] does the source give for `NC(=O)[C@@H]1CC(=O)NCCCC[C@@H](NC(=O)[C@@H](N)Cc2ccc(O)cc2)C(=O)N[C@@H](c2ccccc2)C(=O)N[C@@H](c2ccc(F)cc2)C(=O)N1` here?
A: 93%

Q: What does the source list for `C=C(C(N)=O)[C@@H](NC(=O)[C@H](Cc1ccccc1)NC(=O)[C@@H](C)N(C)C(=O)[C@@H](N)Cc1ccc(O)cc1)c1ccccc1`?
A: EC50 (Mu-type opioid receptor [1]): 4.39 nM; Ki [2]: 4.28 µM; Ki (Mu-type opioid receptor [3]): 0.61 nM; Emax (Mu-type opioid receptor [4]): 80.4%

Q: What does the source list for `C=C(C(N)=O)[C@@H](NC(=O)[C@H](Cc1c[nH]c2ccccc12)NC(=O)[C@@H](C)N(C)C(=O)[C@@H](N)Cc1ccc(O)cc1)c1ccccc1`?
A: EC50 (Mu-type opioid receptor [1]): 2.27 nM; Ki [2]: 3.99 µM; Ki (Mu-type opioid receptor [3]): 0.58 nM; Emax (Mu-type opioid receptor [4]): 88.3%

Q: Which results are given for `Cc1ccccc1[C@@H]1NC(=O)[C@H](c2ccccc2)NC(=O)[C@H](NC(=O)[C@@H](N)Cc2c(C)cc(O)cc2C)CCCCNC(=O)C[C@@H](C(N)=O)NC1=O`?
A: EC50 (Mu-type opioid receptor [5]): 5.62 nM; IC50 (Mu-type opioid receptor [6]): 0.04 nM; ED50 (Mus musculus): 0.05 µg; remaining at […] [7]: 85%; IC50 [8]: 2.05 nM

Q: Which results are given for `C[C@@H](NC(=O)[C@@H](N)Cc1ccc(O)cc1)C(=O)N[C@@H](Cc1ccccc1)C(N)=O`?
A: IC50 (Mu-type opioid receptor [11]): 4.05 µM; IC50 (Mu-type opioid receptor [12]): 262 nM; Activity (Rattus norvegicus): <0.2%

Q: For `Cc1ccc([C@@H]2NC(=O)[C@H](c3ccccc3)NC(=O)[C@H](NC(=O)[C@@H](N)Cc3c(C)cc(O)cc3C)CCCCNC(=O)C[C@@H](C(N)=O)NC2=O)cc1`, which EC50 (Mu-type opioid receptor [5]) is on record?
A: 7.76 nM

Q: What about the IC50 (Mu-type opioid receptor [6]) of the same compound?
A: 0.02 nM

Q: What about the ED50 (Mus musculus) of the same compound?
A: 0.006 µg

Q: What about the remaining at […] [7] of the same compound?
A: 85%

Q: What about the IC50 [8] of the same compound?
A: 14.9 nM

Q: With `NC(=O)[C@@H]1CC(=O)NCCCC[C@@H](NC(=O)[C@@H](N)Cc2ccc(O)cc2)C(=O)N[C@@H](c2ccc(F)cc2F)C(=O)N[C@@H](c2ccccc2)C(=O)N1` as the compound, how does the remaining at […] [7] read?
A: 93%

Q: For `Cc1cc(O)cc(C)c1C[C@H](N)C(=O)N[C@@H]1CCCCNC(=O)C[C@@H](C(N)=O)NC(=O)[C@H](c2ccccc2)NC(=O)[C@H](c2ccc(C(F)(F)F)cc2)NC1=O`, which remaining at […] [7] is on record?
A: 93%

Q: Which results are given for `CN[C@H](C)C(=O)O`?
A: half-life [13]: ≥ 300 min; half-life [14]: ≥ 300 min

Q: With `NC(=O)[C@@H]1CC(=O)NCCCC[C@@H](NC(=O)[C@@H](N)Cc2ccc(O)cc2)C(=O)N[C@@H](c2ccccc2)C(=O)N[C@@H](c2ccc(F)cc2F)C(=O)N1` as the compound, how does the remaining at […] [7] read?
A: 93%

Q: With `NC(=O)[C@@H]1CC(=O)NCCCC[C@@H](NC(=O)[C@@H](N)Cc2ccc(O)cc2)C(=O)N[C@@H](c2ccc(C(F)(F)F)cc2)C(=O)N[C@@H](c2ccccc2)C(=O)N1` as the compound, how does the remaining at […] [7] read?
A: 93%

Q: With `Cc1cccc([C@@H]2NC(=O)[C@H](NC(=O)[C@@H](N)Cc3c(C)cc(O)cc3C)CCCCNC(=O)C[C@@H](C(N)=O)NC(=O)[C@H](c3ccccc3)NC2=O)c1` as the compound, how does the EC50 (Mu-type opioid receptor [5]) read?
A: 2.95 nM

Q: What about the IC50 (Mu-type opioid receptor [6]) of the same compound?
A: 0.8 nM

Q: And the ED50 (Mus musculus)?
A: 0.22 µg

Q: What about the remaining at […] [7] of the same compound?
A: 85%

Q: What about the IC50 [8] of the same compound?
A: 116 nM

Q: With `C=C(C(N)=O)[C@@H](NC(=O)[C@H](Cc1c[nH]c2ccccc12)NC(=O)[C@@H](C)N(C)C(=O)[C@@H](N)Cc1ccc(O)cc1)c1ccco1` as the compound, how does the EC50 (Mu-type opioid receptor [1]) read?
A: 1.45 nM

Q: What about the Ki [2] of the same compound?
A: 3.1 µM

Q: What about the Ki (Mu-type opioid receptor [3]) of the same compound?
A: 0.3 nM

Q: And the Emax (Mu-type opioid receptor [4])?
A: 90.6%

Q: Which results are given for `Cc1ccccc1[C@@H]1NC(=O)[C@H](NC(=O)[C@@H](N)Cc2c(C)cc(O)cc2C)CCCCNC(=O)C[C@@H](C(N)=O)NC(=O)[C@H](c2ccccc2)NC1=O`?
A: EC50 (Mu-type opioid receptor [5]): 5.62 nM; IC50 (Mu-type opioid receptor [6]): 1.09 nM; ED50 (Mus musculus): 0.03 µg; remaining at […] [7]: 85%; IC50 [8]: 198 nM

Q: For `C[C@@H](NC(=O)[C@@H](N)Cc1ccc(O)cc1)C(=O)N[C@@H](Cc1ccccc1)C(=O)NCC(=O)N[C@@H](Cc1ccc(O)cc1)C(=O)N1CCC[C@H]1C(=O)N[C@@H](CO)C(N)=O`, which Activity (Rattus norvegicus) is on record?
A: <0.05%

Q: Which remaining at […] [7] does the source give for `Cc1cc(O)cc(C)c1C[C@H](N)C(=O)N[C@@H]1CCCCNC(=O)C[C@@H](C(N)=O)NC(=O)[C@H](c2ccccc2)NC(=O)[C@H](c2ccc(F)cc2F)NC1=O` here?
A: 93%
